Test results from the NIST ThermoML archive (doi:10.1016/j.tca.2018.03.018).
± gives the expanded uncertainty stated by the source.

Key:
[1] = Crystal; DSC
[2] = Molar enthalpy of transition or fusion; details: Crystal; DSC

- Triple point temperature [1]: 325.66 ± 1 K
- Molar enthalpy of transition or fusion [2]: 12 ± 0.335 kcal/mol
SMILES: CCCCCCCCCCCCCCCCCC(=O)O [octadecanoic acid]
